Data as given in patent US9603896B2, “Peptide compounds and methods of production and use thereof” (priority 2012, dated 2017).
Like-named read-outs stand apart in the source and are kept apart here. Square brackets hold non-standard residues; d marks the D form. Ends that are not written are not given here. Peptide text beside a SMILES is read from it. AEEA = NCCOCCOCC(=O)O

How the values were obtained:
swine skin = assay: Swine full thickness excisional dermal wound model; assay type: in vivo; conditions: for Mean Wound Healing (%): topical 3 mg/ml, 0.20 ml per wound daily
Protocol: In this Example, peptide compounds of the presently disclosed and claimed inventive concept(s) were evaluated as to their activity on the dermal wound healing process in a clinically relevant swine full thickness excisional wound model. Three different peptide formulations (Group B, Peptide 95-122 (SEQ ID NO:26); Group C, Peptide 120-146WH (SEQ ID NO:31); and Group D, Peptide 120-146QH-5RMP (SEQ ID NO:33)) were each evaluated at the same concentration (3 mg/ml). Sterile saline served as the control (Group A).
Full thickness excisional wounds were induced on the dorsum of swine (N=3) using a 1.0 cm biopsy punch. Treatments were administered (0.20 ml) to each wound (N=6 wounds per group), and the wounds were dressed with standard occlusive dressing ([…]™, 3M Corporation, St. Paul, Minn.). Treatments were reapplied daily and dressings changed. Clinical wound healing observations and wound area (2 mm) measurements were performed on days 0, 3, 5, 7, 10, and 14 post-wounding. Wound area (2 mm) data were expressed as percentage (%) of wound healing. Animals were terminated on day 14 with wounds harvested and processed for histological evaluation. […] All peptide formulation treatment groups healed faster with greater rate of closure and re-epithelialization over time, as compared to the saline control (Group A).

[1] = system: Pseudomonas aeruginosa ATCC® 27853™; assay type: cell-based; conditions: for Effects of Peptide Compounds on Pseudomonas aeruginosa ATCC ® 27853 ™: Table 6, 5 × 10^3 CFU/ml unless italicized = 1 × 10^5 CFU/ml
Protocol: (§1) The three peptide compounds BCC01-5RMP (SEQ ID NO:21), BCC02-5RMP (SEQ ID NO:22), and BCC03-5RMP (SEQ ID NO:23) were assayed for in vitro bactericidal activity against Pseudomonas aeruginosa, Escherichia coli, Salmonella typhimurium, and Acinetobacter baumannii. […] The CFU remaining at the end of 60 to 180 minute incubation was determined, and the data plotted as a log reduction in CFU/ml.
(§2) Tables 4-6 show the results of various peptides and peptide compounds against P. aeruginosa and E. coli strains. Tables 4 and 5 show the results of an investigation of the effects of peptide or peptide compounds BCC03-5RMP (SEQ ID NO:23), BCC03-MP (SEQ ID NO:24) and BCC03-5R (SEQ ID NO:20) against P. aeruginosa ATCC® strain 27853™ and E. coli ATCC® strain 25922™ (American Type Culture Collection, Manassas, Va.). […] Table 6 compares the activity of several other compounds, including the “5R” versions of BCC01, i.e., SEQ ID NO:18 (which comprises SEQ ID NO:1 with five additional arginines), the “5R” version of BCC02 (i.e., SEQ ID NO:19, which comprises SEQ ID NO:2 with five additional arginines), and BCC03-5RMP (SEQ ID NO:23), and BCC03-MP (SEQ ID NO:24, i.e., without the five additional R residues). The data generally indicate the superiority of BCC03-5RMP (SEQ ID NO:23) against E. coli, and the superiority of the 5R or 5RMP versions of the peptide over the “AEEA only” peptide against P. aeruginosa.
For FIGS. 10-13, in vitro bactericidal assays were performed using a starting inoculum of 1×10^6 CFU/ml of the bacterial suspension. The CFU remaining at the end of the 60-180 minute incubation was determined, and the data was plotted as log reduction in CFU/ml.
In particular, each of the test peptides (CAP37 peptides 120-146WR, 120-146WH, and 95-122 (SEQ ID NOs: 30, 31, and 26, respectively)) was used at 25, 12.5, 6.25, and 3.12 μM. Gentamicin was used at 4 μg/ml. 1×10^6/ml Acinetobacter baumannii ATCC® BAA-747″ or Pseudomonas aeruginosa ATCC® 27853™ (American Type Culture Collection, Manassas, Va.) were incubated with the peptides, negative buffer control (tryptone saline), and positive control gentamicin at pH 5.5 or 7.2. A 60 minute incubation was used for Acinetobacter baumannii ATCC® BAA747™, while a 180 minute incubation was used for Pseudomonas aeruginosa ATCC® 27853™. 50 μl aliquots were plated out on agar plates and incubated overnight. Colony forming units were counted after overnight incubation and CFU/ml calculated.
For FIG. 14, 1×10^6/ml Pseudomonas aeruginosa ATCC® 27853™ were incubated with each of the test peptides (CAP37 peptides 120-146WR, 120-146WH, 120-146QR, 120-146QH, 120-146QR-5RMP, and 120-146QH-5RMP (SEQ ID NOs: 30, 31, 28, 29, 32, and 33, respectively)) at 150, 75, and 37.5 μg/ml, or negative buffer control (tryptone saline), for 180 minutes at pH 5.5. 50 μl aliquots were plated out on agar plates and incubated overnight. Colony forming units were counted after overnight incubation and CFU/ml calculated.

[2] = system: E. coli ATCC® strain 25922™; assay type: cell-based, Escherichia coli; parameters: Effects of Peptide Compounds on Escherichia coli ATCC ® 25922 ™: unit not given here; conditions: Table 6, 5 × 10^3 CFU/ml unless italicized = 1 × 10^5 CFU/ml
Protocol: as §1, §2

[3] = wounds harvested day 14, 3 mg/ml topical

## CC(C)C[C@H](NC(=O)[C@H](CCCNC(=N)N)NC(=O)CNC(=O)CNC(=O)[C@H](CO)NC(=O)[C@H](Cc1c[nH]cn1)NC(=O)[C@H](CCC(N)=O)NC(=O)[C@H](CO)NC(=O)CNC(=O)[C@H](Cc1c[nH]c2ccccc12)NC(=O)CNC(=O)[C@H](C)NC(=O)[C@@H](NC(=O)[C@H](CCC(N)=O)NC(=O)[C@H](CS)NC(=O)[C@H](CCCNC(=N)N)NC(=O)[C@@H](NC(=O)CNC(=O)[C@H](CCCNC(=N)N)NC(=O)[C@H](CCCNC(=N)N)NC(=O)[C@H](CCCNC(=N)N)NC(=O)[C@H](CCCNC(=N)N)NC(=O)COCCOCCNC(=O)COCCOCCN)[C@@H](C)O)C(C)C)C(=O)N[C@@H](CO)C(=O)N[C@@H](CCCNC(=N)N)C(=O)N[C@@H](Cc1ccccc1)C(=O)N1CCC[C@H]1C(=O)N[C@@H](CCCNC(=N)N)C(=O)N[C@@H](Cc1ccccc1)C(=O)N[C@H](C(=O)N[C@@H](CC(N)=O)C(=O)N[C@H](C(=O)N[C@@H](CCCNC(=N)N)C(=O)O)C(C)C)C(C)C [120-146QH-5RMP] (H-[AEEA][AEEA]RRRRGTRCQVAGWGSQHSGGRLSRFPRFVNVR-OH)
Swine skin; Day 0
  Mean Wound Healing (%): 0.0%
Swine skin; Day 3
  Mean Wound Healing (%): 22.5%
Swine skin; Day 5
  Mean Wound Healing (%): 34.1%
Swine skin; Day 7
  Mean Wound Healing (%): 64.1%
Swine skin; Day 10
  Mean Wound Healing (%): 93.7%
Swine skin; Day 14
  Mean Wound Healing (%): 98.0%
Swine skin; day 14 post-wounding
  histology: epidermal resurfacing and maturation vs saline control: greater extent of epidermal resurfacing and maturation of the epidermis
Swine skin; topically at 3 mg/ml, over 14 days
  dermal wound healing vs saline: accelerate dermal wound healing
Swine skin; [3]
  Histopathology Results, Mean Angiogenesis: 1.3
  Histopathology Results, Mean Epithelization: 4.0
  Histopathology Results, Mean Granulation: 4.0
  Histopathology Results, Mean Inflammation: 0.5
[1]; pH 5.5, 180 minutes, 75 μg/ml
  reduction in CFU (FIG. 14): ~6 log

## RRRRNQGRHFCGGALIHARFVMTAASCFQR (5-arginine peptide derivative of CAP37 peptide) [SEQ ID NO: 18 (Linear)]
[2]; 43.8 μg/ml
  Effects of Peptide Compounds on Escherichia coli ATCC ® 25922 ™: 93.9
[2]; 87.6 μg/ml
  Effects of Peptide Compounds on Escherichia coli ATCC ® 25922 ™: 95.3
[2]; 175.2 μg/ml
  Effects of Peptide Compounds on Escherichia coli ATCC ® 25922 ™: 97.1
[2]; 262.8 μg/ml
  Effects of Peptide Compounds on Escherichia coli ATCC ® 25922 ™: 100.0
[1]; 0.137 μg/ml
  Effects of Peptide Compounds on Pseudomonas aeruginosa ATCC ® 27853 ™: 25.4
[1]; 0.5475 μg/ml
  Effects of Peptide Compounds on Pseudomonas aeruginosa ATCC ® 27853 ™: 63.2
[1]; 2.19 μg/ml
  Effects of Peptide Compounds on Pseudomonas aeruginosa ATCC ® 27853 ™: 87.9
[1]; 8.76 μg/ml
  Effects of Peptide Compounds on Pseudomonas aeruginosa ATCC ® 27853 ™: 99.5
[1]; 87.6 μg/ml
  Effects of Peptide Compounds on Pseudomonas aeruginosa ATCC ® 27853 ™: 100.0

## CC[C@H](C)[C@H](NC(=O)[C@H](CC(C)C)NC(=O)[C@H](C)NC(=O)CNC(=O)CNC(=O)[C@H](CS)NC(=O)[C@H](Cc1ccccc1)NC(=O)[C@H](Cc1c[nH]cn1)NC(=O)[C@H](CCCNC(=N)N)NC(=O)CNC(=O)[C@H](CCC(N)=O)NC(=O)[C@H](CC(N)=O)NC(=O)COCCOCCNC(=O)COCCOCCN)C(=O)N[C@@H](Cc1c[nH]cn1)C(=O)N[C@@H](C)C(=O)N[C@@H](CCCNC(=N)N)C(=O)N[C@@H](Cc1ccccc1)C(=O)N[C@H](C(=O)N[C@@H](CCSC)C(=O)N[C@H](C(=O)N[C@@H](C)C(=O)N[C@@H](C)C(=O)N[C@@H](CO)C(=O)N[C@@H](CO)C(=O)N[C@@H](Cc1ccccc1)C(=O)N[C@@H](CCC(N)=O)C(=O)O)[C@@H](C)O)C(C)C [BCC03-MP] (H-[AEEA][AEEA]NQGRHFCGGALIHARFVMTAASSFQ-OH; N-terminus and C-terminus assumed)
[2]; 6.25 μg/ml
  Effects of Peptide Compounds on Escherichia coli ATCC ® 25922 ™: 6.4
[2]; 12.5 μg/ml
  Effects of Peptide Compounds on Escherichia coli ATCC ® 25922 ™: 21.8
[2]; 25 μg/ml
  Effects of Peptide Compounds on Escherichia coli ATCC ® 25922 ™: 27.2
[2]; 50 μg/ml
  Effects of Peptide Compounds on Escherichia coli ATCC ® 25922 ™: 24.6
[2]; 100 μg/ml
  Effects of Peptide Compounds on Escherichia coli ATCC ® 25922 ™: 27.5
[2]; 200 μg/ml
  Effects of Peptide Compounds on Escherichia coli ATCC ® 25922 ™: 46.0
[2]; 400 μg/ml
  Effects of Peptide Compounds on Escherichia coli ATCC ® 25922 ™: 58.2
[1]; 6.25 μg/ml
  Effects of Peptide Compounds on Pseudomonas aeruginosa ATCC ® 27853 ™: −38.2
[1]; 12.5 μg/ml
  Effects of Peptide Compounds on Pseudomonas aeruginosa ATCC ® 27853 ™: -45.6
[1]; 25 μg/ml
  Effects of Peptide Compounds on Pseudomonas aeruginosa ATCC ® 27853 ™: −27.3
[1]; 50 μg/ml
  Effects of Peptide Compounds on Pseudomonas aeruginosa ATCC ® 27853 ™: −2.9
[1]; 100 μg/ml
  Effects of Peptide Compounds on Pseudomonas aeruginosa ATCC ® 27853 ™: 44.0
[1]; 200 μg/ml
  Effects of Peptide Compounds on Pseudomonas aeruginosa ATCC ® 27853 ™: 74.4
[1]; 400 μg/ml
  Effects of Peptide Compounds on Pseudomonas aeruginosa ATCC ® 27853 ™: 92.8

## RRRRNQGRHFCGGALIHARFVMTAASCFQR (also: cyclized) [SEQ ID NO: 18 (Cyclized)]
[2]; 12.5 μg/ml
  Effects of Peptide Compounds on Escherichia coli ATCC ® 25922 ™: 37.9
[2]; 25 μg/ml
  Effects of Peptide Compounds on Escherichia coli ATCC ® 25922 ™: 38.0
[2]; 50 μg/ml
  Effects of Peptide Compounds on Escherichia coli ATCC ® 25922 ™: 49.3
[2]; 100 μg/ml
  Effects of Peptide Compounds on Escherichia coli ATCC ® 25922 ™: 52.6
[2]; 200 μg/ml
  Effects of Peptide Compounds on Escherichia coli ATCC ® 25922 ™: 59.6
[2]; 400 μg/ml
  Effects of Peptide Compounds on Escherichia coli ATCC ® 25922 ™: 82.0
[1]; 0.78 μg/ml
  Effects of Peptide Compounds on Pseudomonas aeruginosa ATCC ® 27853 ™: 99.6
[1]; 1.56 μg/ml
  Effects of Peptide Compounds on Pseudomonas aeruginosa ATCC ® 27853 ™: 98.4
[1]; 3.125 μg/ml
  Effects of Peptide Compounds on Pseudomonas aeruginosa ATCC ® 27853 ™: 100.0
[1]; 6.25 μg/ml
  Effects of Peptide Compounds on Pseudomonas aeruginosa ATCC ® 27853 ™: 100.0
[1]; 12.5 μg/ml
  Effects of Peptide Compounds on Pseudomonas aeruginosa ATCC ® 27853 ™: 100.0
[1]; 25 μg/ml
  Effects of Peptide Compounds on Pseudomonas aeruginosa ATCC ® 27853 ™: 100.0
[1]; 50 μg/ml
  Effects of Peptide Compounds on Pseudomonas aeruginosa ATCC ® 27853 ™: 100.0
[1]; 100 μg/ml
  Effects of Peptide Compounds on Pseudomonas aeruginosa ATCC ® 27853 ™: 100.0
[1]; 200 μg/ml
  Effects of Peptide Compounds on Pseudomonas aeruginosa ATCC ® 27853 ™: 100.0
[1]; 400 μg/ml
  Effects of Peptide Compounds on Pseudomonas aeruginosa ATCC ® 27853 ™: 100.0
